According to patent publication US20210395313A1, “PEPTIDE PAC1 ANTAGONISTS” (AMGEN INC., priority 2017, published 2021):
Where a SMILES comes first, the peptide text is derived from it. Bridges are numbered along the chain shown (N, C = ends). Where no end group is shown, it is not given here. [ ]: non-standard residue; d: D form. SeMet = C[Se]CC[C@H](N)C(=O)O

Assays:
human PAC1 receptor = molecular target: T1, human PAC1 receptor (Homo sapiens, UniProt P41586); assay: LANCE Ultra cAMP accumulation antagonist assay in SHSY-5Y cells; type: cell-based;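 also: inhibition of cAMP accumulation evoked by PAC1 agonist at its EC80 in SHSY-5Y cells endogenously expressing receptor, 30 min preincubation then 15 min agonist, TR-FRET readout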
T1 construct: SHSY-5Y (human neuroblastoma cell line) and RG-2 (rat glioma cell line) cells endogenously express human and rat PAC1 receptors, respectively; endogenous in cells; host or cells: SHSY-5Y human neuroblastoma cells
T1 sequence (P41586 21-468): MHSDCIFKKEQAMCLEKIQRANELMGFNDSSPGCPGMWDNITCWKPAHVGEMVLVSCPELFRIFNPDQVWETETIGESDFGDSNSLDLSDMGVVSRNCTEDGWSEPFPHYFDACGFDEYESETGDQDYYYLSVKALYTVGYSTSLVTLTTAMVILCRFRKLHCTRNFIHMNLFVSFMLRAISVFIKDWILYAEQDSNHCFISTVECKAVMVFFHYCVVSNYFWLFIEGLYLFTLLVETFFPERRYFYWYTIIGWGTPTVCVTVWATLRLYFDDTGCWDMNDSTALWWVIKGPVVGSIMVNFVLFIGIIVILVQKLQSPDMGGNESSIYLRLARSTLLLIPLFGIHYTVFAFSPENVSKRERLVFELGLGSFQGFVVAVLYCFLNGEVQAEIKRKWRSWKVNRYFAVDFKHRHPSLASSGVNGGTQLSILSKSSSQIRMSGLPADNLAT

rat PAC1 receptor = molecular target: T2, rat PAC1 receptor (Rattus norvegicus, UniProt P32215); assay: LANCE Ultra cAMP accumulation antagonist assay in RG-2 cells; type: cell-based;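 also: RG-2 rat glioma cells endogenously expressing PAC1, test peptide preincubated 30 min, then PAC1 agonist added at its EC80 for 15 min, cAMP accumulation read by LANCE Ultra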
T2 construct: SHSY-5Y (human neuroblastoma cell line) and RG-2 (rat glioma cell line) cells endogenously express human and rat PAC1 receptors, respectively; endogenous in cells; host or cells: RG-2 rat glioma cells
T2 sequence (P32215 20-523): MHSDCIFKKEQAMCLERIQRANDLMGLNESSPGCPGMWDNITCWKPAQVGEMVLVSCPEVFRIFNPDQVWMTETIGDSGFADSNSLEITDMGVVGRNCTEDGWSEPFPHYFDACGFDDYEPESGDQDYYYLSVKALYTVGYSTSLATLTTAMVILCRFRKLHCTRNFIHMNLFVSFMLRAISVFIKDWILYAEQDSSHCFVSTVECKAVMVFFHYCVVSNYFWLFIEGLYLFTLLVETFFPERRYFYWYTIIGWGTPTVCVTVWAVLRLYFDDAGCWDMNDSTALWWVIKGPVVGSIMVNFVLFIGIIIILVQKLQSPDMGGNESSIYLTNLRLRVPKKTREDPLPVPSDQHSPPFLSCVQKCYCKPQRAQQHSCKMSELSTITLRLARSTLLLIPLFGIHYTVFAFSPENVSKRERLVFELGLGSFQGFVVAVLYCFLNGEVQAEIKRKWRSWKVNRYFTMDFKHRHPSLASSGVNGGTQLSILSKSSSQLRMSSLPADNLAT

Row | Molecule | IC50 (human PAC1 receptor) | IC50 (rat PAC1 receptor)
1 | CC[C@H](C)[C@H](NC(=O)[C@H](C)NC(=O)[C@H](CCCCN)NC(=O)[C@H](CCCNC(=N)N)NC(=O)[C@H](Cc1ccccc1)NC(=O)[C@H](CCC(N)=O)NC(=O)[C@@H]1CSSC[C@H](N)C(=O)N[C@@H](CC(=O)O)C(=O)N[C@@H](C)C(=O)N[C@@H]([C@@H](C)O)C(=O)N1)C(=O)N[C@@H](CC(=O)O)C(=O)N[C@@H](CC(=O)O)C(=O)N[C@H]1CSSC[C@@H](C(=O)N[C@@H](CCSC)C(=O)N[C@@H](CCCCN)C(=O)N[C@@H](CCC(N)=O)C(=O)N[C@@H](CCCCN)C(=O)N[C@@H](CCCCN)C(=O)N[C@@H](CCCCN)C(=O)N[C@@H](CCC(=O)O)C(=O)N[C@@H](Cc2ccccc2)C(=O)N[C@@H](CCCCN)C(N)=O)NC(=O)[C@H](CCC(=O)O)NC(=O)[C@H](CCCCN)NC(=O)[C@H](Cc2ccccc2)NC(=O)[C@H](C(C)C)NC(=O)[C@H](CO)NC(=O)[C@H](CC(N)=O)NC(=O)[C@@H]2CCCN2C(=O)[C@H](C(C)C)NC(=O)[C@H](CC(N)=O)NC(=O)[C@H](CO)NC(=O)[C@H](Cc2c[nH]cn2)NC(=O)[C@H](Cc2c[nH]cn2)NC(=O)[C@H](C)NC(=O)[C@H](CCC(N)=O)NC(=O)[C@H](CCCCN)NC(=O)[C@H](CCC(N)=O)NC1=O [compound 311] (H-CDATCQFRKAIDDCQKQAHHSNVPNSVFKECMKQKKKEFK-NH2; disulfide 1-5, 14-31) | > 100 nM | 1 to 100 nM
2 | CSCC[C@@H]1NC(=O)[C@H](C)NC(=O)[C@H](C(C)C)NC(=O)[C@H](CCCCN)NC(=O)[C@H](CCCCN)NC(=O)[C@H](Cc2ccc(O)cc2)NC(=O)[C@H](CC(C)C)NC(=O)[C@@H](NC(=O)[C@H](C)NC(=O)[C@@H](NC(=O)[C@H](CC(C)C)NC(=O)CNC(=O)[C@H](CCCCN)NC(=O)[C@H](CCCNC(=N)N)NC(=O)[C@H](Cc2ccc(O)cc2)NC(=O)[C@H](CCC(N)=O)NC(=O)[C@@H]2CSSC[C@H](N)C(=O)N[C@@H](CC(=O)O)C(=O)N[C@@H](C)C(=O)N[C@@H]([C@@H](C)O)C(=O)N2)C(C)C)CSSC[C@@H](C(=O)N[C@@H](CCSC)C(=O)N[C@@H](CCCCN)C(=O)N[C@@H](CCC(N)=O)C(=O)N[C@@H](CCCCN)C(=O)N[C@@H](CCCCN)C(=O)N[C@@H](CCCCN)C(=O)N[C@@H](CCC(=O)O)C(=O)N[C@@H](Cc2c[nH]c3ccccc23)C(N)=O)NC(=O)[C@H](C)NC(=O)[C@H](CCCCN)NC(=O)[C@H](Cc2ccccc2)NC(=O)[C@H](C(C)C)NC(=O)[C@H](CO)NC(=O)[C@H](Cc2ccc(O)cc2)NC(=O)[C@H](CCCNC(=N)N)NC(=O)[C@H](CCCCN)NC(=O)[C@H](CCC(N)=O)NC1=O [compound 427] (H-CDATCQYRKGLVACLYKKVAMQKRYSVFKACMKQKKKEW-NH2; disulfide 1-5, 14-31) | 1 to 100 nM | 1 to 100 nM
3 | CDATCFFRKVIDDCQKQAHHSNVPGSVFKACMKQLKKRWQAG-NH2 (disulfide 1-5, 14-31) [compound 125] | > 100 nM | 1 to 100 nM
4 | CDATCFFRKVIDDCYYRSWHSNVPGSVFKACMKQLKKRWQAG-NH2 (disulfide 1-5, 14-31) [compound 70] | 1 to 100 nM | 1 to 100 nM
5 | CDATCHFRKAIDDCQKQAHHSNVPGSVFKACMKQHKKRWRAG-NH2 (disulfide 1-5, 14-31) [compound 124] | 0.01 to 1 nM | 0.01 to 1 nM
6 | CDATCHFRKAIDDCYYRSWHSNVPGSVFKACMKQHKKRWRAG-NH2 (disulfide 1-5, 14-31) [compound 71] | 0.01 to 1 nM | 0.01 to 1 nM
7 | CDATCQFRKAIDDCAGRASHANVPGSVFKACMKQKKKEWKAGH-NH2 (disulfide 1-5, 14-31) [compound 425] | 0.01 to 1 nM | 0.01 to 1 nM
8 | CDATCQFRKAIDDCAHRAWHSNVPGSVFKLCMKQKKKEWKAGH-NH2 (disulfide 1-5, 14-31) [compound 424] | 0.01 to 1 nM | 0.01 to 1 nM
9 | CDATCQFRKAIDDCAKASWHSNVPGSVFKSCMKQKKKEWKAGH-NH2 (disulfide 1-5, 14-31) [compound 1] | 0.01 to 1 nM | < 0.01 nM
10 | CDATCQFRKAIDDCAKQAHHANVPGSVFKACMKQKKKEFKAG-NH2 (disulfide 1-5, 14-31) [compound 13] | 0.01 to 1 nM | 0.01 to 1 nM
11 | CDATCQFRKAIDDCAKQAHHSNVPGSVFKACIKQKKKEFKAG-NH2 (disulfide 1-5, 14-31) [compound 14] | 0.01 to 1 nM | 0.01 to 1 nM
12 | CDATCQFRKAIDDCAKQAHHSNVPGSVFKACMKQKKKEFKAGH (disulfide 1-5, 14-31) [compound 57] | 0.01 to 1 nM | 0.01 to 1 nM
13 | CDATCQFRKAIDDCAKQAHHSNVPGSVFKACMKQKKKEFKAGY (disulfide 1-5, 14-31) [SEQ ID NO 56] | 0.01 to 1 nM | 0.01 to 1 nM
14 | CDATCQFRKAIDDCAKQAHHSNVPGSVFKACMKQKKKEWKAGH (disulfide 1-5, 14-31) [SEQ ID NO 152] | 0.01 to 1 nM | 0.01 to 1 nM
15 | CDATCQFRKAIDDCAKQAHHSNVPGSVFKLCMKQKKKEFKAG-NH2 (disulfide 1-5, 14-31) [compound 18] | 0.01 to 1 nM | < 0.01 nM
16 | CDATCQFRKAIDDCAKQAHHSNVPGSVFKSCMKQKKKEFKAG-NH2 (disulfide 1-5, 14-31) [compound 31] | 0.01 to 1 nM | < 0.01 nM
17 | CDATCQFRKAIDDCARQAHHANVPGSVFKACMKQKKKEWKAGH (disulfide 1-5, 14-31) [compound 8] | 0.01 to 1 nM | 0.01 to 1 nM
18 | CDATCQFRKAIDDCARQAHHSNVPGSVFKACFKQKKKEWKAGH (disulfide 1-5, 14-31) [compound 39] | 0.01 to 1 nM | 0.01 to 1 nM

Row | Molecule | IC50 (human PAC1 receptor) | IC50 (rat PAC1 receptor)
19 | CDATCQFRKAIDDCARQAHHSNVPGSVFKACIKQKKKEWKAGH (disulfide 1-5, 14-31) [compound 9] | 0.01 to 1 nM | 0.01 to 1 nM
20 | CDATCQFRKAIDDCARQAHHSNVPGSVFKACLKQKKKEWKAGH (disulfide 1-5, 14-31) [compound 41] | 0.01 to 1 nM | 0.01 to 1 nM
21 | CDATCQFRKAIDDCARQAHHSNVPGSVFKACMKQKKKEFKAG-NH2 (disulfide 1-5, 14-31) [compound 17] | 0.01 to 1 nM | < 0.01 nM
22 | CDATCQFRKAIDDCARQAHHSNVPGSVFKACMKQKKKEWKAGH-NH2 (disulfide 1-5, 14-31) [compound 2] | 0.01 to 1 nM | 0.01 to 1 nM
23 | CDATCQFRKAIDDCARQAHHSNVPGSVFKACMKQKKKEYKAGH (disulfide 1-5, 14-31) [compound 10] | 0.01 to 1 nM | 0.01 to 1 nM
24 | CDATCQFRKAIDDCARQAHHSNVPGSVFKACSKQKKKEWKAGH (disulfide 1-5, 14-31) [compound 40] | 1 to 100 nM | 1 to 100 nM
25 | CDATCQFRKAIDDCARQAHHSNVPGSVFKAC[SeMet]KQKKKEWKAGH (disulfide 1-5, 14-31) [compound 7] | 0.01 to 1 nM | 0.01 to 1 nM
26 | CDATCQFRKAIDDCARQAHHSNVPGSVFKLCMKQKKKEWKAGH (disulfide 1-5, 14-31) [compound 23] | 0.01 to 1 nM | < 0.01 nM
27 | CDATCQFRKAIDDCARQAHHSNVPGSVFKSCMKQKKKEWKAGH (disulfide 1-5, 14-31) [compound 24] | 0.01 to 1 nM | 0.01 to 1 nM
28 | CDATCQFRKAIDDCARQAHHSNVPGSVWKACMKQKKKEWKAGH (disulfide 1-5, 14-31) [SEQ ID NO 105] | 0.01 to 1 nM | 0.01 to 1 nM
29 | CDATCQFRKAIDDCARQAHHSQVPGSVFKACMKQKKKEWKAGH (disulfide 1-5, 14-31) [compound 22] | 0.01 to 1 nM | 0.01 to 1 nM
30 | CDATCQFRKAIDDCAWFALHSNVPGSVFKACMKQKKKEFKAG-NH2 (disulfide 1-5, 14-31) [compound 91] | 0.01 to 1 nM | 0.01 to 1 nM
31 | CDATCQFRKAIDDCAWFAMHSNVPGSVFKACMKQKKKEFKAG-NH2 (disulfide 1-5, 14-31) [compound 90] | 0.01 to 1 nM | 0.01 to 1 nM
32 | CDATCQFRKAIDDCDKQAHHSNVPGSVFKACMKQKKKEFQAG-NH2 (disulfide 1-5, 14-31) [compound 169] | 0.01 to 1 nM | 0.01 to 1 nM
33 | CDATCQFRKAIDDCDRQAHHSNVPGSVFKACMKQKKKEFKAG-NH2 (disulfide 1-5, 14-31) [compound 168] | 0.01 to 1 nM | 0.01 to 1 nM
34 | CDATCQFRKAIDDCDRQAHHSNVPGSVFKACMKQKKKEFKAGH (disulfide 1-5, 14-31) [compound 155] | 1 to 100 nM | 0.01 to 1 nM
35 | CDATCQFRKAIDDCDRQAHHSNVPGSVFKACMKQKKKEWKAG (disulfide 1-5, 14-31) [compound 81] | 1 to 100 nM | 0.01 to 1 nM
36 | CDATCQFRKAIDDCDRQAHHSNVPGSVFKACMKQKKKEWKAGH (disulfide 1-5, 14-31) [compound 167] | 0.01 to 1 nM | 0.01 to 1 nM
